Measurements taken from publication PMC12423301, “Astrocytic monoamine oxidase B (MAOB)–gamma-aminobutyric acid (GABA) axis as a molecular brake on repair following spinal cord injury” (Signal Transduction and Targeted Therapy, 2025).

What was measured:
[1] = human
Procedure: (§1) Protocol No. NB_KDS_ADP1_21 Confidential
Therapeutics in Adult Healthy Volunteers), with considering the safety factor and the result of the rat that […]
from the NOAEL calculated in the 4-week repeated toxicity test for rats and cynomolgus monkeys, the maximum recommended starting dose (MRSD) was calculated. As a result of converting 0.484 mg/kg, a value obtained by dividing this by the safety factor of 10, into a dose for a healthy adult weighing 60 kg, the MRSD was calculated to be 29.04 mg, and the initial administration dose was set to 30 mg. As a result of a single oral dose toxicity test in rats, 700 mg/kg was reported as a maximum tolerated dose (MTD), and it was calculated as 6774.2 mg/60kg when converted to a human equivalent dose (HED). Therefore, the set maximum dose is expected to be suitable in terms of safety.
Species NOAEL HED factor (Safety factor factor (Safety factor 1/30) […]
5.2.2. Duration of Dosing and Timepoints of Blood samplings/Urine collections
6 hours. In addition, considering that the Tmax of selegiline (ZELAPAR®) and safinamide (XADAGO®), which are similar drugs, are 0.75 hours and 1.83 to 2.83 hours, respectively, pharmacokinetic blood samplings before the estimated Tmax (about 2 hours) were included at 3 or more time points, and the pharmacokinetic blood […]

[2] = 14C radiolabeled KDS2010 disposition and excretion in rats; format: in vivo, SD rats
Procedure: as §1
In a pharmacokinetic study, plasma PK parameters were measured after a single oral administration of
5.2. Rationale for Selection of Dose and Duration of Dosing
According to the FDA guideline (Estimating the Maximum Safe Starting Dose in Initial Clinical Trials for […]

Safety pharmacology test = conditions: in vivo
Procedure: Protocol No. NB_KDS_ADP1_21 Confidential administration of the test substance to rats at a dose of 50-200 mg/kg daily for 2 weeks, there were no deaths.
As a result of oral administration to rats at doses of 30, 50, 75 and 100 mg/kg once daily for 4 weeks, […]
testis, epididymis and lungs. Renal epithelial hyperplasia and inflammatory cells infiltration in the renal pelvis observed in the male and female dose groups of 75 mg/kg or more, germ cell degeneration/loss and seminiferous tubules atrophy observed in the male dose groups of 75 mg/kg or more, and vacuole/degeneration of outer medullary tubules and basophilic tubules observed in the female dose groups were judged to be adverse effects due to administration of the test substance. […] Accordingly, in repeated administrations of rats for 4 weeks, the NOAEL(No Observed Adverse Effect Level) was determined to be 50 mg/kg/day for males and 30 mg/kg for females. […]
In a pharmacokinetic study, plasma PK parameters were measured after a single oral administration of […]
a result of measuring excretion into urine, feces, expiration, and bile, 6.9% was excreted in urine and 48.5% in feces, respectively, up to 168 hours after administration. Excretion to air through respiration was about 0.0% until 48 hours after administration, and 44.1% of the administered radioactivity concentration was present in the body (carcass). […]

[3] = BDC rats, until 48 hours after oral administration
[4] = up to 168 hours after administration

**Q.** Which half-life [1] does the source give for `CS(=O)(=O)O.C[C@H](NCc1ccc(-c2ccc(C(F)(F)F)cc2)cc1)C(N)=O` [KDS2010, (S)-2-(((4’-Trifluoromethylbiphenyl-4-yl)methyl)amino)propanamide methane-sulfonate] here?
**A.** The half-life was roughly 36 h.

**Q.** What about the “administered radioactivity present in the body (carcass)” value ([2]; 14C radiolabeled, oral 10 mg/kg) of the same molecule?
**A.** Its value is 44.1%.

**Q.** And the excreted in bile ([2]; BDC (bile duct-cannulated) rats, until 48 hours after oral administration)?
**A.** Its excreted in bile is 71.5%.

**Q.** And the excreted in feces [2, 3]?
**A.** Its excreted in feces is 6.0%.

**Q.** And the excreted in urine [2, 3]?
**A.** Its excreted in urine is 6.8%.

**Q.** And the “excretion to air through respiration” value ([2]; until 48 hours after administration)?
**A.** The value was “about 0.0%”.

**Q.** What about the excreted in feces [2, 4] of the same molecule?
**A.** Its excreted in feces is 48.5%.

**Q.** What about the excreted in urine [2, 4] of the same molecule?
**A.** Its excreted in urine is 6.9%.

**Q.** And the “effects on central nervous system, respiratory system, and cardiovascular system” value (Safety pharmacology test)?
**A.** The value was “no effect”.
